Assay results published in ChEMBL document CHEMBL3739395, “Discovery and optimisation of 1-acyl-2-benzylpyrrolidines as potent dual orexin receptor antagonists” (Medchemcomm, 2015).
pIC50: −log10 of the molar value. Active and inactive are the calls of the source. No cut-off for these calls is given here.

Legend:
[1] = Drug uptake in Wistar rat cerebrospinal fluid at 100 mg/kg, po measured 3 hrs post dose; format: ADME, organism-based; conditions: read-out: Drug uptake
[2] = target: T1, Orexin/Hypocretin receptor type 1 (Rattus norvegicus) (UniProt P56718); experiment: Insurmountable antagonist activity against rat orexin-1 receptor expressed in CHO cells assessed as calcium release at IC50 preincubated for 120 mins followed by addition of orexin-A by Cheng-Prusoff equation analysis; format: functional, cell-based
T1 sequence (whole entry): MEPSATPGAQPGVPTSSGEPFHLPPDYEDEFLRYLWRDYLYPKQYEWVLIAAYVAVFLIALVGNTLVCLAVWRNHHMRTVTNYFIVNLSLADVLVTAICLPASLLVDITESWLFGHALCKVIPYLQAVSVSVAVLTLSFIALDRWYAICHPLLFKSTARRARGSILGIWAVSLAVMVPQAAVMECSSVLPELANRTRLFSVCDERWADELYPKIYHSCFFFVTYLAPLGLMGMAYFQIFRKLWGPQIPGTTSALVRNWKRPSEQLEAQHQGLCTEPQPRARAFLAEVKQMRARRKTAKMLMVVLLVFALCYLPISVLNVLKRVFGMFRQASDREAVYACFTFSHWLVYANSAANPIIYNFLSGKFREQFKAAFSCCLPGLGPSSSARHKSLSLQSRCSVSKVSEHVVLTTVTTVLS

[3] = target: T2, Orexin receptor type 2 (Rattus norvegicus) (UniProt P56719); experiment: Insurmountable antagonist activity against rat orexin-2 receptor expressed in CHO cells assessed as calcium release at IC50 preincubated for 120 mins followed by addition of orexin-A by Cheng-Prusoff equation analysis; format: functional, cell-based
T2 sequence (whole entry): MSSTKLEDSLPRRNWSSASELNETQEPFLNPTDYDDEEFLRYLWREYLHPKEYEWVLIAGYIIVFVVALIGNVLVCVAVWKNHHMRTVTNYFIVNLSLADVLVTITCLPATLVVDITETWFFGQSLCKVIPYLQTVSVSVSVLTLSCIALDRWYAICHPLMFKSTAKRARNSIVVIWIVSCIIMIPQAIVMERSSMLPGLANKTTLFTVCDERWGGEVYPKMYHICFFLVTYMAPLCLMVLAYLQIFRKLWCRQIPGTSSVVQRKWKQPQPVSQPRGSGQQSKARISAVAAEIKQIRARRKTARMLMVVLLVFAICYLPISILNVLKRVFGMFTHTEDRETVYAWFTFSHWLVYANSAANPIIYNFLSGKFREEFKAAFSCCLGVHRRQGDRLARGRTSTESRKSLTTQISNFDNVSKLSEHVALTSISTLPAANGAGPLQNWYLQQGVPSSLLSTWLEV

[4] = Fraction unbound in rat plasma; format: ADME, cell-free
[5] = Fraction unbound in rat brain; format: ADME, tissue-based
[6] = Ratio of drug level in brain to plasma of rat; format: ADME; conditions: brain and plasma, read-out: BPR
Brain = experiment: Free drug level in rat brain; format: ADME, tissue-based; conditions: in vivo
Orexin receptor type 2 = target: T3, Orexin receptor type 2 (Homo sapiens, UniProt O43614); experiment: Inhibition of human orexin-2 receptor expressed in CHO cells assessed as calcium release preincubated for 120 mins followed by addition of orexin-A by fluo-4 AM based-FLIPR analysis; format: functional, cell-based
T3 sequence (O43614 whole entry): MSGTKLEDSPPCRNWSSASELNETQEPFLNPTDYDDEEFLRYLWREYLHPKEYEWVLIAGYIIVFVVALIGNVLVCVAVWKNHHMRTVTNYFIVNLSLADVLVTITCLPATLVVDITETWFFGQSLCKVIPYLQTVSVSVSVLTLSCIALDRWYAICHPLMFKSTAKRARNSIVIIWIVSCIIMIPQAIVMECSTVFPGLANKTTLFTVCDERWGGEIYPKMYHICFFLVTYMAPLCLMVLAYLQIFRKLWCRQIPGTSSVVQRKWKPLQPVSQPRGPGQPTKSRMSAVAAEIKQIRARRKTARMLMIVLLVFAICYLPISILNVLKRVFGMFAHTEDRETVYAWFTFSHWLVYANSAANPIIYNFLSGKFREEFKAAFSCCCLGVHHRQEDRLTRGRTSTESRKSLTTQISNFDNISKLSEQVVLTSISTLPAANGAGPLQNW

[7] = Intrinsic clearance in human liver microsomes at 1 uM; format: ADME; conditions: read-out: CLH
[8] = Intrinsic clearance in rat liver microsomes at 1 uM; format: ADME; conditions: read-out: CLH
[9] = target: T4, Orexin/Hypocretin receptor type 1 (Homo sapiens, UniProt O43613); experiment: Inhibition of human orexin-1 receptor expressed in CHO cells assessed as calcium release preincubated for 120 mins followed by addition of orexin-A by fluo-4 AM based-FLIPR analysis; format: functional, cell-based
T4 sequence (O43613 whole entry): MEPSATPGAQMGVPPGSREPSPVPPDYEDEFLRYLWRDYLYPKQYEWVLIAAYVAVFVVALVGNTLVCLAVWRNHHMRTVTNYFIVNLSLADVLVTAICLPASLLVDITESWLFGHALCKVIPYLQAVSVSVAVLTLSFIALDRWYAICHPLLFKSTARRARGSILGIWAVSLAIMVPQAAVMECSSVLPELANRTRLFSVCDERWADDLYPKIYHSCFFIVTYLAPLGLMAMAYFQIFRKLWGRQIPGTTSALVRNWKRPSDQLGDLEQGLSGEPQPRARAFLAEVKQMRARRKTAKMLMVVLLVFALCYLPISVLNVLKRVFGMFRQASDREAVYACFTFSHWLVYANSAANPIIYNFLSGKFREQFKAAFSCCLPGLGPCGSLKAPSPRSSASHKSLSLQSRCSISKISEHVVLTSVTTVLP

[10] = target: T5, Orexin/Hypocretin receptor type 1 (Homo sapiens) (UniProt O43613); experiment: Insurmountable antagonist activity against human orexin-1 receptor expressed in CHO cells assessed as calcium release at IC50 preincubated for 120 mins followed by addition of orexin-A by Cheng-Prusoff equation analysis; format: functional, cell-based
T5 sequence (whole entry): T4 sequence (O43613 whole entry)

[11] = target: T6, Orexin receptor type 2 (Homo sapiens) (UniProt O43614); experiment: Insurmountable antagonist activity against human orexin-2 receptor expressed in CHO cells assessed as calcium release at IC50 preincubated for 120 mins followed by addition of orexin-A by Cheng-Prusoff equation analysis; format: functional, cell-based
T6 sequence (whole entry): T3 sequence (O43614 whole entry)

[12] = target: T5, Orexin/Hypocretin receptor type 1 (Homo sapiens); experiment: Competitive antagonist activity against human orexin-1 receptor expressed in CHO cells assessed as shift in orexin-A CRC at IC50 incubated for 120 mins in presence of orexin-A by Cheng-Prusoff equation analysis; format: cell-based
[13] = target: T6, Orexin receptor type 2 (Homo sapiens); experiment: Competitive antagonist activity against human orexin-2 receptor expressed in CHO cells assessed as shift in orexin-A CRC at IC50 incubated for 120 mins in presence of orexin-A by Cheng-Prusoff equation analysis; format: cell-based
Rattus norvegicus [14] = experiment: Reduction in home cage activity in Wistar rat sleep model at 100 mg/kg, po administered as single dose during first 6 hrs of night active period post dose relative to vehicle control; format: functional; design: scale not given: the % may be the effect or the level left
Rattus norvegicus [15] = experiment: Sleep promoting effect in Wistar rat sleep model at 100 mg/kg, po administered as single dose during first 6 hrs of night active period post dose relative to vehicle control; format: functional, organism-based
[16] = target: T5, Orexin/Hypocretin receptor type 1 (Homo sapiens); experiment: Inhibition of human orexin-1 receptor expressed in CHO cells assessed as time duration for Kb change preincubated for 120 mins followed by stimulation with orexin-A post compound washout by FLIPR assay; format: cell-based
[17] = target: T6, Orexin receptor type 2 (Homo sapiens); experiment: Inhibition of human orexin-2 receptor expressed in CHO cells assessed as time duration for Kb change preincubated for 120 mins followed by stimulation with orexin-A post compound washout by FLIPR assay; format: cell-based
Rattus norvegicus [18] = experiment: Reduction in time spent in active wake state in Wistar rat sleep model at 100 mg/kg, po administered as single dose during first 6 hrs of night active period post dose relative to vehicle control; format: functional; design: scale not given: the % may be the effect or the level left
Rattus norvegicus [19] = experiment: Increase in time spent in quiet wake state in Wistar rat sleep model at 100 mg/kg, po administered as single dose during first 6 hrs of night active period post dose relative to vehicle control; format: functional
Rattus norvegicus [20] = experiment: Increase in time spent in non-rapid eye movement sleep in Wistar rat sleep model at 100 mg/kg, po administered as single dose during first 6 hrs of night active period post dose relative to vehicle control; format: functional
Rattus norvegicus [21] = experiment: Increase in time spent in rapid eye movement sleep in Wistar rat sleep model at 100 mg/kg, po administered as single dose during first 6 hrs of night active period post dose relative to vehicle control; format: functional
[22] = target: T5, Orexin/Hypocretin receptor type 1 (Homo sapiens); conditions: CHO
Description: Inhibition of human orexin-1 receptor expressed in CHO cells assessed as occupancy half life preincubated for 120 mins followed by stimulation with orexin-A post compound washout measured at 0 to 30 mins by FLIPR assay

[23] = target: T6, Orexin receptor type 2 (Homo sapiens); conditions: CHO
Description: Inhibition of human orexin-2 receptor expressed in CHO cells assessed as occupancy half life preincubated for 120 mins followed by stimulation with orexin-A post compound washout measured at 0 to 30 mins by FLIPR assay

concentration at 3 h [1]: 133 ng/mL
Kb [2]: 7.3 nM
Kb [3]: 1.7 nM
fraction unbound [4]: 0.027
fraction unbound [5]: 0.04
Kp [6]: 0.68
Drug uptake(free) (Brain): 60 nM
pIC50 (Orexin receptor type 2): 8.18
microsomal CLint at 1 µM [7]: 197 µL/min/mg
microsomal CLint at 1 µM [8]: > 1250 µL/min/mg
pIC50 [9]: 7.96
Kb [10]: 5.3 nM
Kb [11]: 1.4 nM
inhibition [12]: Active
inhibition [13]: Active
TIME [16]: 0.0833 h
TIME [17]: 0.333 h
T1/2 [22]: 1.1 min
T1/2 [23]: 5.4 min
SMILES: COc1ccc(C[C@@H]2CCCN2C(=O)c2nc(C)sc2-c2ccc3c(c2)OCO3)cc1OC
Activity (Rattus norvegicus [14]): 47%
Activity (Rattus norvegicus [15]): Active
Activity (Rattus norvegicus [18]): -29%
Activity (Rattus norvegicus [19]): 17%
Activity (Rattus norvegicus [20]): 18%
Activity (Rattus norvegicus [21]): 84%
